Numbered stars: 1 amine (or outer) side, 2 acyl side, 3 side chain; on linkers, the order of the positions; unused ones are H or OH. Bridge positions count the residues as written; N and C are the ends. Square brackets hold non-standard residues; d marks the D form. Peptide text beside a SMILES is read from it. * marks the point of attachment. ξ: configuration not given here. Phe(3-CF3) = N[C@@H](Cc1cccc(C(F)(F)F)c1)C(=O)O; Phe(4-CONH2) = NC(=O)c1ccc(C[C@H](N)C(=O)O)cc1; Phe(4-COOH) = N[C@@H](Cc1ccc(C(=O)O)cc1)C(=O)O; Bip = N[C@@H](Cc1ccc(-c2ccccc2)cc1)C(=O)O; X13 = N[C@@H](CN*)C(=O)NCCCCCCCCCCC(=O)O; NH(CH2)14COOH = O=C(O)CCCCCCCCCCCCCCN*; Phe(3-Me) = Cc1cccc(C[C@H](N)C(=O)O)c1; βAsp = O=C(O)[C@H](CC(=O)[*:2])N[*:1]; NH(CH2)12COOH = O=C(O)CCCCCCCCCCCCN*; Val(3-OH) = CC(C)(O)[C@H](N)C(=O)O; mTyr = N[C@@H](Cc1cccc(O)c1)C(=O)O; X6 = O=C(Cc1ccc(CN[*:1])cc1)[*:2]; hArg = N=C(N)NCCCC[C@H](N)C(=O)O; 4Pal = N[C@@H](Cc1ccncc1)C(=O)O; ξVal(3-OH) = CC(C)(O)C(N)C(=O)O; Cha = N[C@@H](CC1CCCCC1)C(=O)O; Cit = NC(=O)NCCC[C@H](N)C(=O)O; Thr(3ξ) = CC(O)[C@H](N)C(=O)O; dDab = NCC[C@@H](N)C(=O)O; Carboxymethyl = O=C(O)C*; Orn = NCCC[C@H](N)C(=O)O; Pra = C#CC[C@H](N)C(=O)O; Aun = NCCCCCCCCCCC(=O)O; Dab = NCC[C@H](N)C(=O)O; Nva = CCC[C@H](N)C(=O)O; Dap = NC[C@H](N)C(=O)O; AEEA = NCCOCCOCC(=O)O
Biological target: T1, PD-1/PD-L1 interaction (PE-labeled human PD-L1-Ig binding to Jurkat cell line over-expressing human PD-1) (Homo sapiens, UniProt Q15116)
T1 construct: expressed in transfected cells; host or cells: Jurkat
T1 sequence (Q15116 25-288): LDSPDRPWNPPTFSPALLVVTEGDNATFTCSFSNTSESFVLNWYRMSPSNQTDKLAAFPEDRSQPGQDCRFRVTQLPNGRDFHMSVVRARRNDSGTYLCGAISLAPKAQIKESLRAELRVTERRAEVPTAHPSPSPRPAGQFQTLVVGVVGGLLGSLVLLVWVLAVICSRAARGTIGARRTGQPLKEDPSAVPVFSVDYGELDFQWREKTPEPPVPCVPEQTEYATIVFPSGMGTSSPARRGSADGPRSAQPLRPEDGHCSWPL
Experiment: Jurkat-PD-1 Cell Binding High-Content Screening Assay (CBA)
Assay type: cell-based
Details: Jurkat cell line over-expressing human PD-1; PE-labeled PD-L1-Ig 20 nM final; read-out: Jurkat hPD1-PDL1 IC50
Summary of the method: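 Binding of fluorescent PD-L1-Ig (phycoerythrin on Ig tag, 20 nM final, 1 h) measured by high-content imaging of fixed, Hoechst-counterstained Jurkat-hPD-1 cells. Compound added 2 h at 37° C beforehand, in DMEM with 10% fetal calf serum.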

SMILES | IC50 [nM]
CCC[C@@H]1NC(=O)CSC[C@@H](C(=O)N[C@@H](CCN)C(=O)NCCOCCOCC(=O)N[C@@H](CC(=O)NCCOCCOCC(=O)NCCCCCCCCCCCCC(=O)O)C(=O)O)NC(=O)[C@H](CO)NC(=O)[C@H](C(C)(C)O)NC(=O)[C@H](CC2CCCCC2)NC(=O)[C@H](CCN)NC(=O)[C@@H](CC(C)C)NC(=O)[C@H](CCCN)NC(=O)[C@H](Cc2ccc(C(=O)O)cc2)NC(=O)[C@H](Cc2ccc(-c3ccccc3)cc2)NC(=O)[C@H](Cc2ccc(C(=O)O)cc2)NC(=O)[C@H](Cc2cccc(C(F)(F)F)c2)NC(=O)[C@H](CC(=O)O)NC(=O)[C@H](Cc2ccc(OCC(=O)O)cc2)NC1=O [Compound 2931] ({CH2CO}-[Nva]Y(Carboxymethyl)D[Phe(3-CF3)][Phe(4-COOH)][Bip][Phe(4-COOH)][Orn][dL][Dab][Cha][Val(3-OH)]SC[Dab][AEEA][βAsp][AEEA]-{NH(CH2)12COOH}; thioether N-14) | 26.3
Cc1cccc(C[C@@H]2NC(=O)[C@H](CC(=O)O)NC(=O)[C@H](Cc3ccc(OCC(=O)O)cc3)NC(=O)[C@H](CN)NC(=O)CSC[C@@H](C(=O)NC[C@H](N)C(=O)NCCCCCCCCCCC(=O)O)NC(=O)[C@H]([C@@H](C)O)NC(=O)[C@H](C(C)C)NC(=O)[C@H](CC3CCCCC3)NC(=O)[C@H](CCN)NC(=O)[C@@H](CC(C)C)NC(=O)[C@H](CCCN)NC(=O)[C@H](CCCNC(N)=O)NC(=O)[C@H](Cc3ccc(-c4ccccc4)cc3)NC(=O)[C@H](C(C)C)NC2=O)c1 [Compound 2621] ({CH2CO}-[Dap]Y(Carboxymethyl)D[Phe(3-Me)]V[Bip][Cit][Orn][dL][Dab][Cha]VTC-X13; thioether N-14) | 16.8
C#CC[C@H](NC(=O)[C@H](CCN)NC(=O)[C@@H]1CSCC(=O)N[C@@H](Cc2ccncc2)C(=O)N[C@@H](Cc2ccc(OCC(=O)O)cc2)C(=O)N[C@@H](CC(=O)O)C(=O)N[C@@H](Cc2cccc(C)c2)C(=O)N[C@@H](Cc2ccc(OC)cc2)C(=O)N[C@@H](Cc2ccc(-c3ccccc3)cc2)C(=O)N[C@@H](Cc2ccc(OCC(=O)O)cc2)C(=O)N[C@@H](CCCN)C(=O)N[C@H](CC(C)C)C(=O)N[C@@H](CCN)C(=O)N[C@@H](CC2CCCCC2)C(=O)N[C@@H](C(C)(C)O)C(=O)N[C@@H](CO)C(=O)N1)C(=O)NCCCCCCCCCCC(=O)O [Compound 1278] ({CH2CO}-[4Pal]Y(Carboxymethyl)D[Phe(3-Me)]Y(Me)[Bip]Y(Carboxymethyl)[Orn][dL][Dab][Cha][Val(3-OH)]SC[Dab][Pra][Aun]-OH; thioether N-14) | 140
CCC[C@@H]1NC(=O)CSC[C@@H](C(=O)N[C@@H](CCN)C(=O)NCCOCCOCC(=O)NCCCCCCCCCCCCC(=O)O)NC(=O)[C@H](CO)NC(=O)C(C(C)(C)O)NC(=O)[C@H](CC2CCCCC2)NC(=O)[C@H](CCN)NC(=O)[C@@H](CC(C)C)NC(=O)[C@H](CCCN)NC(=O)[C@H](Cc2ccc(OCC(=O)O)cc2)NC(=O)[C@H](Cc2ccc(-c3ccccc3)cc2)NC(=O)[C@H](Cc2ccc(OCC(=O)O)cc2)NC(=O)[C@H](Cc2cccc(C)c2)NC(=O)[C@H](CC(=O)O)NC(=O)[C@H](Cc2ccc(OCC(=O)O)cc2)NC1=O (stereo partly drawn) [Compound 2252] ({CH2CO}-[Nva]Y(Carboxymethyl)D[Phe(3-Me)]Y(Carboxymethyl)[Bip]Y(Carboxymethyl)[Orn][dL][Dab][Cha][ξVal(3-OH)]SC[Dab][AEEA]-{NH(CH2)12COOH}; thioether N-14) | 13.5
CC(C)C[C@H]1NC(=O)[C@H](CCCN)NC(=O)[C@H](C(C)C)NC(=O)[C@H](Cc2ccc(-c3ccccc3)cc2)NC(=O)[C@H](C(C)C)NC(=O)[C@H](Cc2c[nH]c3ccccc23)NC(=O)[C@H](CC(=O)O)NC(=O)[C@H](Cc2ccc(OCC(=O)O)cc2)NC(=O)[C@H](CN)NC(=O)CSC[C@@H](C(=O)N[C@@H](CN)C(=O)NCCCCCCCCCCC(=O)O)NC(=O)[C@H]([C@@H](C)O)NC(=O)[C@H](C(C)C)NC(=O)[C@H](CC2CCCCC2)NC(=O)[C@H](Cc2c[nH]cn2)NC1=O [Compound 1074] ({CH2CO}-[Dap]Y(Carboxymethyl)DWV[Bip]V[Orn][dL]H[Cha]VTC[Dap][Aun]-OH; thioether N-14) | 69.5
Cc1cccc(C[C@@H]2NC(=O)[C@H](CC(=O)O)NC(=O)[C@H](Cc3ccc(OCC(=O)O)cc3)NC(=O)[C@H](CN)NC(=O)CSC[C@@H](C(=O)NCc3ccc(CC(=O)N[C@@H](CCCCN)C(=O)NCCCCCCCCCCC(=O)O)cc3)NC(=O)[C@H](CN)NC(=O)[C@H](C(C)C)NC(=O)[C@H](CC3CCCCC3)NC(=O)[C@H](CCN)NC(=O)[C@@H](CC(C)C)NC(=O)[C@H](CCCN)NC(=O)[C@H](C(C)C)NC(=O)[C@H](Cc3ccc(-c4ccccc4)cc3)NC(=O)[C@H](C(C)C)NC2=O)c1 [Compound 2011] ({CH2CO}-[Dap]Y(Carboxymethyl)D[Phe(3-Me)]V[Bip]V[Orn][dL][Dab][Cha]V[Dap]C[X6]K[Aun]-OH; thioether N-14) | 24.8
Cc1cccc(C[C@@H]2NC(=O)[C@H](CC(=O)O)NC(=O)[C@H](Cc3ccc(OCC(=O)O)cc3)NC(=O)[C@H](C(C)O)NC(=O)CSC[C@@H](C(=O)N[C@@H](CCN)C(=O)NCCCCCCCCCCC(=O)O)NC(=O)[C@H](CO)NC(=O)[C@H](C(C)(C)O)NC(=O)[C@H](CC3CCCCC3)NC(=O)[C@H](CCN)NC(=O)[C@@H](CC(C)C)NC(=O)[C@H](CCCN)NC(=O)[C@H](Cc3ccc(O)cc3)NC(=O)[C@H](Cc3ccc(-c4ccccc4)cc3)NC(=O)[C@H](Cc3ccc(C(N)=O)cc3)NC2=O)c1 (stereo partly drawn) [Compound 3718] ({CH2CO}-[Thr(3ξ)]Y(Carboxymethyl)D[Phe(3-Me)][Phe(4-CONH2)][Bip]Y[Orn][dL][Dab][Cha][Val(3-OH)]SC[Dab][Aun]-OH; thioether N-14) | 8.8
Cc1cccc(C[C@@H]2NC(=O)[C@H](CC(=O)O)NC(=O)[C@H](Cc3ccc(OCC(=O)O)cc3)NC(=O)[C@H](CN)NC(=O)CSC[C@@H](C(=O)N[C@@H](C)C(=O)N[C@@H](CC(=O)NCCOCCOCC(=O)N[C@@H](CCC(=O)O)C(=O)NCCOCCOCC(=O)NCCCCCCCCCCC(=O)O)C(=O)O)NC(=O)[C@H]([C@@H](C)O)NC(=O)[C@H](C(C)C)NC(=O)[C@H](CC3CCCCC3)NC(=O)[C@H](CCN)NC(=O)[C@@H](CC(C)C)NC(=O)[C@H](CCCN)NC(=O)[C@H](CCCNC(N)=O)NC(=O)[C@H](Cc3ccc(-c4ccccc4)cc3)NC(=O)[C@H](C(C)C)NC2=O)c1 [Compound 1020] ({CH2CO}-[Dap]Y(Carboxymethyl)D[Phe(3-Me)]V[Bip][Cit][Orn][dL][Dab][Cha]VTCA[βAsp][AEEA]E[AEEA][Aun]-OH; thioether N-14) | 8.3
CC(C)C[C@H]1NC(=O)[C@H](CCCN)NC(=O)[C@H](Cc2ccc(O)cc2)NC(=O)[C@H](Cc2ccc(-c3ccccc3)cc2)NC(=O)[C@H](C(C)C)NC(=O)[C@H](Cc2c[nH]c3ccccc23)NC(=O)[C@H](CC(=O)O)NC(=O)[C@H](Cc2ccc(OCC(=O)O)cc2)NC(=O)[C@H](CN)NC(=O)CSC[C@@H](C(=O)N[C@@H](CCN)C(=O)NCCCCCCCCCCC(=O)O)NC(=O)[C@H](CN)NC(=O)[C@H](C(C)O)NC(=O)[C@H](CC2CCCCC2)NC(=O)[C@H](CCN)NC1=O (stereo partly drawn) [Compound 3654] ({CH2CO}-[Dap]Y(Carboxymethyl)DWV[Bip]Y[Orn][dL][Dab][Cha][Thr(3ξ)][Dap]C[Dab][Aun]-OH; thioether N-14) | 45.1

Further compounds by falling IC50, results first:

IC50 [nM] | SMILES
245 | CC(C)C[C@H]1NC(=O)[C@H](CCCN)NC(=O)[C@H](Cc2ccc(O)cc2)NC(=O)[C@H](Cc2ccc(-c3ccccc3)cc2)NC(=O)[C@H](Cc2ccc(O)cc2)NC(=O)[C@H](Cc2cccc(O)c2)NC(=O)[C@H](CC(=O)O)NC(=O)[C@H](Cc2ccc(OCC(=O)O)cc2)NC(=O)[C@H](CN)NC(=O)CSC[C@@H](C(=O)N[C@@H](CCN)C(=O)NCCCCCCCCCCC(=O)O)NC(=O)[C@@H](CCN)NC(=O)[C@H](C(C)C)NC(=O)[C@H](CC2CCCCC2)NC(=O)[C@H](CCN)NC1=O [Compound 2079] ({CH2CO}-[Dap]Y(Carboxymethyl)D[mTyr]Y[Bip]Y[Orn][dL][Dab][Cha]V[dDab]C[Dab][Aun]-OH; thioether N-14)
184 | CC(C)C[C@@H]1NC(=O)[C@H](Cc2c[nH]c3ccccc23)NC(=O)[C@H](CC(=O)O)NC(=O)[C@H](Cc2ccc(C(=O)O)cc2)NC(=O)[C@H](C(C)O)NC(=O)CSC[C@@H](C(=O)N[C@@H](CC(N)=O)C(=O)N[C@@H](CCN)C(=O)NCCCCCCCCCCCCCCC(=O)O)NC(=O)[C@H](CO)NC(=O)[C@H](C(C)C)NC(=O)[C@H](CC2CCCCC2)NC(=O)[C@H](CCN)NC(=O)[C@@H](CC(C)C)NC(=O)[C@H](CCCN)NC(=O)[C@H](C(C)C)NC(=O)[C@H](Cc2ccc(-c3ccccc3)cc2)NC1=O (stereo partly drawn) [Compound 3023] ({CH2CO}-[Thr(3ξ)][Phe(4-COOH)]DWL[Bip]V[Orn][dL][Dab][Cha]VSCN[Dab]-{NH(CH2)14COOH}; thioether N-14)
11.4 | CC(C)C[C@H]1NC(=O)[C@H](CCCN)NC(=O)[C@H](C(C)C)NC(=O)[C@H](Cc2ccc(-c3ccccc3)cc2)NC(=O)[C@H](C(C)C)NC(=O)[C@H](Cc2c[nH]c3ccccc23)NC(=O)[C@H](CC(=O)O)NC(=O)[C@H](Cc2ccc(OCC(=O)O)cc2)NC(=O)[C@H](CN)NC(=O)CSC[C@@H](C(=O)N[C@@H](CCCN)C(=O)NCCOCCOCC(=O)NCCCCCCCCCCC(=O)O)NC(=O)[C@H](C(C)O)NC(=O)[C@H](C(C)C)NC(=O)[C@H](CC2CCCCC2)NC(=O)[C@H](CCN)NC1=O (stereo partly drawn) [Compound 3191] ({CH2CO}-[Dap]Y(Carboxymethyl)DWV[Bip]V[Orn][dL][Dab][Cha]V[Thr(3ξ)]C[Orn][AEEA][Aun]-OH; thioether N-14)
6.7 | CC(C)C[C@H]1NC(=O)[C@H](CCCN)NC(=O)[C@H](C(C)C)NC(=O)[C@H](Cc2ccc(-c3ccccc3)cc2)NC(=O)[C@H](C(C)C)NC(=O)[C@H](Cc2c[nH]c3ccccc23)NC(=O)[C@H](CC(=O)O)NC(=O)[C@H](Cc2ccc(OCC(=O)O)cc2)NC(=O)[C@H](CCCCNC(=N)N)NC(=O)CSC[C@@H](C(=O)NCCOCCOCC(=O)NCCCCCCCCCCC(=O)O)NC(=O)[C@H](CCCN)NC(=O)[C@H](C(C)C)NC(=O)[C@H](CC2CCCCC2)NC(=O)[C@H](CCN)NC1=O [Compound 3262] ({CH2CO}-[hArg]Y(Carboxymethyl)DWV[Bip]V[Orn][dL][Dab][Cha]V[Orn]C[AEEA][Aun]-OH; thioether N-14)
